Drawing on a melting point compilation (Tetko et al.), this text covers melting point for 47 compounds.

The melting point is the temperature, or range, at which the solid turns liquid. `Cn1cnc(-c2ccc(F)cc2)c1N` showed a melting point of 148 to 150 °C. Next, `Cc1nc(-c2cccnc2)[nH]c(=O)c1CCC(=O)O`: 279 to 281 °C; `COCCNS(=O)(=O)c1ccc(C#N)cc1`: 88 to 90 °C; `O=C(O)[C@@H]1CC(O)CN1C(=O)OCC1c2ccccc2-c2ccccc21` (some centres not stated): 189 to 191 °C. The compound `O=C(c1ccc(F)cc1)c1cnccn1` came in with a melting point of 55 to 57 °C. The same measure for `O=C(CCl)NCCOc1ccc2c(c1)OCO2`: 75 to 77 °C; for `Cc1nc(S(=O)(=O)NCC(=O)O)cn1C`: 217 to 219 °C; for `COC(=O)c1ccc2ccccc2c1O`: 75 to 77 °C. The same measure for `CCOc1ccc([N+](=O)[O-])cc1CCl`: 68 to 70 °C; for `O=C(O)C=Cc1cc(Cl)ccc1OCc1ccccc1Br`: 207 to 209 °C. Next, `O=C(O)c1cn(-c2ccc(F)cc2)nn1`: 159 to 161 °C.

Turning to `CC(C)S(=O)(=O)c1ccc(CC(=O)O)cc1`, the melting point lay within 146 to 148 °C. Next, `O=C(O)CNC(=O)C12CC3CC(CC(C3)C1)C2`: 145 to 147 °C. Next, `COC(=O)c1ccc(Cl)nc1Cl`: 56 to 58 °C; `CCc1ccc(C(=O)O)cc1S(C)(=O)=O`: 174 to 176 °C.

`CC(C)(C)OC(=O)NC1CCC(O)CC1` (configuration not stated) came in with a melting point of 169 to 171 °C. Next, `CC(=O)CC(=O)c1ccc(F)cc1`: 48 to 52 °C. `COc1ccc(C(=O)C(C)Br)cc1OC` (configuration not stated) returned a melting point of 83 to 85 °C. Compound `N#CCc1cc(Br)cnc1O` had a melting point of 209 to 211 °C. Next, `O=C(O)Cn1nc(-c2ccc(F)cc2)oc1=O`: 110 to 112 °C; `CNC(=O)c1n[nH]c(=O)c2ccccc12`: 283 to 285 °C.

Turning to `Cc1nnc(-c2cccc(C(=O)O)c2)o1`, the melting point lay within 241 to 243 °C. The same measure for `CC1CCc2c(sc3ncnc(Cl)c23)C1` (configuration not stated): 119 to 121 °C. Next, `Cc1nc(S)c2ccccc2n1`: 211 to 213 °C. Next, `Cc1c(C(=O)O)sc2nnc(S)n12`: 275 to 277 °C; `Nc1cc(-c2cccc(Cl)c2)n[nH]1`: 130 to 132 °C. The compound `CCOc1ccc2oc(C(=O)O)c(C)c2c1` gave a melting point of 155 to 165 °C. Next, `O=C(O)C=Cc1ccc(S(=O)(=O)Nc2cccc(C(F)(F)F)c2)cc1`: 224 to 226 °C. On to `NC(=O)CCc1ccc(F)cc1`, for which the melting point lay in the range of 105 to 107 °C.

`Cc1ccnc(Br)c1N` registered a melting point of 76 to 78 °C.

Turning to `O=Cc1ccccc1OCC(=O)NCC1CC1`, the melting point was in the range of 93 to 95 °C. The same measure for `Nc1cccc(S(=O)(=O)NCc2ccco2)c1`: 83 to 85 °C; for `Cc1nc(-c2cccc([N+](=O)[O-])c2)no1`: 108 to 110 °C; for `CC(C)(C)OC(=O)N1CCN(c2nnc(N)[nH]2)CC1`: 178 to 180 °C. The same measure for `Cc1cc(F)ccc1-n1cc(C(=O)O)nn1`: 129 to 131 °C; for `Oc1ccc(Cl)cc1-c1cc(-c2ccco2)[nH]n1`: 166 to 168 °C; for `Cc1cccc(OCCCCC(=O)O)c1`: 55 to 57 °C. `Cc1ccc(/C=C/c2n[nH]c(S)n2)o1` showed a melting point of 275 to 277 °C. Next, `O=c1cc(-c2ccccc2)c2cc(Cl)c(O)cc2o1`: 260 to 262 °C; `CCCNC(=O)CC#N`: 53 to 55 °C. The compound `Cc1cc(NC(=O)OC(C)(C)C)sc1C` had a melting point of 102 to 104 °C.

`O=C(O)CCNC(=O)C12CC3CC(CC(C3)C1)C2` came in with a melting point of 185 to 187 °C. The same measure for `CCC(O)(C(N)=O)c1ccc(Br)cc1` (configuration not stated): 146 to 148 °C; for `N#CCc1ccc(C(N)=O)cc1`: 186 to 188 °C; for `CC(C)(C)c1nc(CC(=O)O)cs1`: 94 to 96 °C. The same measure for `O=c1nc2ccccc2c(-c2ccccc2)[nH]1`: 254 to 256 °C; for `O=C(CCl)Nc1ccnn1C1CCCC1`: 76 to 78 °C.
